Laboratory results taken from article PMC7181660, “A novel specific PERK activator reduces toxicity and extends survival in Huntington's disease models” (Scientific Reports, 2020).
Like-named read-outs stand apart in the source and are kept apart here.

Legend:
Experiment in all cases: biochemical
Format in all cases: biochemical
panel of 391 kinases [1] = target: panel of 391 kinases (Homo sapiens, UniProt Q86V86); settings: PIM3, MK-28 1 µM, ATP 1 µM
panel of 391 kinases [2] = target: panel of 391 kinases (Homo sapiens, UniProt Q9Y6E0); settings: MST3/STK24, MK-28 1 µM, ATP 1 µM
panel of 391 kinases [3] = target: panel of 391 kinases (Homo sapiens, UniProt P42684); settings: ABL2/ARG, MK-28 1 µM, ATP 1 µM
panel of 391 kinases [4] = target: panel of 391 kinases (Homo sapiens, UniProt Q6P2M8); settings: CAMK1b, MK-28 1 µM, ATP 1 µM
panel of 391 kinases [5] = target: panel of 391 kinases (Homo sapiens, UniProt Q9HBH9); settings: MNK2, MK-28 1 µM, ATP 1 µM
panel of 391 kinases [6] = target: panel of 391 kinases (Homo sapiens, UniProt Q00535); settings: MK-28 1 µM, ATP 1 µM; for remaining activity at 1 µM: read-out: % Enzyme Activity (relative to DMSO controls)
panel of 391 kinases [7] = target: panel of 391 kinases (Homo sapiens, UniProt P29320); settings: EPHA3, MK-28 1 µM, ATP 1 µM
panel of 391 kinases [8] = target: panel of 391 kinases (Homo sapiens, UniProt P14616); settings: IRR/INSRR, MK-28 1 µM, ATP 1 µM
panel of 391 kinases [9] = target: panel of 391 kinases (Homo sapiens, UniProt Q9UPZ9); settings: LCK2/ICK, MK-28 1 µM, ATP 1 µM
panel of 391 kinases [10] = target: panel of 391 kinases (Homo sapiens, UniProt P22607); settings: FGFR3, MK-28 1 µM, ATP 1 µM
panel of 391 kinases [11] = target: panel of 391 kinases (Homo sapiens, UniProt Q96QT4); settings: kinase TRPM7/CHAK1, compound at 1 µM, single dose in duplicates, 1 µM ATP
panel of 391 kinases [12] = target: panel of 391 kinases (Homo sapiens, UniProt Q86YV6); settings: MYLK4, MK-28 1 µM, ATP 1 µM
panel of 391 kinases [13] = target: panel of 391 kinases (Homo sapiens, UniProt O14733); settings: MKK7, MK-28 1 µM, ATP 1 µM
panel of 391 kinases [14] = target: panel of 391 kinases (Homo sapiens, UniProt Q9BXA7); settings: STK22D/TSSK1, MK-28 1 µM, ATP 1 µM
panel of 391 kinases [15] = target: panel of 391 kinases (Homo sapiens, UniProt Q6PHR2); settings: ULK3, MK-28 1 µM, ATP 1 µM
panel of 391 kinases [16] = target: panel of 391 kinases (Homo sapiens, UniProt Q9UEW8); settings: STK39/STLK3, MK-28 1 µM, ATP 1 µM
panel of 391 kinases [17] = target: panel of 391 kinases (Homo sapiens, UniProt O00311); settings: CDC7/DBF4, MK-28 1 µM, ATP 1 µM
panel of 391 kinases [18] = target: panel of 391 kinases (Homo sapiens, UniProt Q15119); settings: kinase PDK2/PDHK2, compound at 1 µM, single dose in duplicates, 1 µM ATP
panel of 391 kinases [19] = target: panel of 391 kinases (Homo sapiens, UniProt Q9Y2H1); settings: STK38L/NDR2, MK-28 1 µM, ATP 1 µM
panel of 391 kinases [20] = target: panel of 391 kinases (Homo sapiens, UniProt Q02750); settings: MEK1, MK-28 1 µM, ATP 1 µM
panel of 391 kinases [21] = target: panel of 391 kinases (Homo sapiens, UniProt Q5TCX8); settings: MLK4, MK-28 1 µM, ATP 1 µM
panel of 391 kinases [22] = target: panel of 391 kinases (Homo sapiens, UniProt Q13464); settings: ROCK1, MK-28 1 µM, ATP 1 µM
[23] = read-out: % Enzyme Activity (relative to DMSO controls)

CN(/N=C\c1ccc(O)c(O)c1)c1nc(-c2ccccc2)cc(-c2ccccc2)n1 [MK-28]
% Enzyme Activity (relative to DMSO controls) (panel of 391 kinases [1]): 87.24%
remaining activity at 1 µM (panel of 391 kinases [1]; [23]): 89.2%
% Enzyme Activity (relative to DMSO controls) (panel of 391 kinases [2]): 121.45%
remaining activity at 1 µM (panel of 391 kinases [2]; [23]): 122%
% Enzyme Activity (relative to DMSO controls) (panel of 391 kinases [3]): 99.46%
remaining activity at 1 µM (panel of 391 kinases [3]; [23]): 100%
% Enzyme Activity (relative to DMSO controls) (panel of 391 kinases [4]): 94.89%
remaining activity at 1 µM (panel of 391 kinases [4]; [23]): 96.9%
% Enzyme Activity (relative to DMSO controls) (panel of 391 kinases [5]): 105.57%
remaining activity at 1 µM (panel of 391 kinases [5]; [23]): 114%
% Enzyme Activity (relative to DMSO controls) (panel of 391 kinases [6]; CDK5/p25): 93.55%
remaining activity at 1 µM (panel of 391 kinases [6]; CDK5/p25): 93.6%
% Enzyme Activity (relative to DMSO controls) (panel of 391 kinases [6]; CDK5/p35): 96.39%
remaining activity at 1 µM (panel of 391 kinases [6]; CDK5/p35): 96.6%
% Enzyme Activity (relative to DMSO controls) (panel of 391 kinases [7]): 93.74%
remaining activity at 1 µM (panel of 391 kinases [7]; [23]): 106%
% Enzyme Activity (relative to DMSO controls) (panel of 391 kinases [8]): 82.69%
remaining activity at 1 µM (panel of 391 kinases [8]; [23]): 85.9%
% Enzyme Activity (relative to DMSO controls) (panel of 391 kinases [9]): 99.01%
remaining activity at 1 µM (panel of 391 kinases [9]; [23]): 99.2%
% Enzyme Activity (relative to DMSO controls) (panel of 391 kinases [10]): 103.07%
remaining activity at 1 µM (panel of 391 kinases [10]; [23]): 103%
% Enzyme Activity (relative to DMSO controls) (panel of 391 kinases [11]): 102.70%
remaining activity at 1 µM (panel of 391 kinases [11]; [23]): 104%
% Enzyme Activity (relative to DMSO controls) (panel of 391 kinases [12]): 92.82%
remaining activity at 1 µM (panel of 391 kinases [12]; [23]): 97.6%
% Enzyme Activity (relative to DMSO controls) (panel of 391 kinases [13]): 95.27%
remaining activity at 1 µM (panel of 391 kinases [13]; [23]): 96.9%
% Enzyme Activity (relative to DMSO controls) (panel of 391 kinases [14]): 91.99%
remaining activity at 1 µM (panel of 391 kinases [14]; [23]): 93.3%
% Enzyme Activity (relative to DMSO controls) (panel of 391 kinases [15]): 97.75%
remaining activity at 1 µM (panel of 391 kinases [15]; [23]): 98.7%
% Enzyme Activity (relative to DMSO controls) (panel of 391 kinases [16]): 106.05%
remaining activity at 1 µM (panel of 391 kinases [16]; [23]): 108%
% Enzyme Activity (relative to DMSO controls) (panel of 391 kinases [17]): 105.60%
remaining activity at 1 µM (panel of 391 kinases [17]; [23]): 113%
% Enzyme Activity (relative to DMSO controls) (panel of 391 kinases [18]): 99.55%
remaining activity at 1 µM (panel of 391 kinases [18]; [23]): 103%
% Enzyme Activity (relative to DMSO controls) (panel of 391 kinases [19]): 94.10%
remaining activity at 1 µM (panel of 391 kinases [19]; [23]): 96%
% Enzyme Activity (relative to DMSO controls) (panel of 391 kinases [20]): 99.18%
remaining activity at 1 µM (panel of 391 kinases [20]; [23]): 100%
% Enzyme Activity (relative to DMSO controls) (panel of 391 kinases [21]): 96.53%
remaining activity at 1 µM (panel of 391 kinases [21]; [23]): 97.1%
% Enzyme Activity (relative to DMSO controls) (panel of 391 kinases [22]): 94.86%
remaining activity at 1 µM (panel of 391 kinases [22]; [23]): 99.6%
